From US8933103B2, “Pyridone derivatives” (Daiichi Sankyo Company, Limited, priority 2012, dated 2015)

Assays:
[1] = target: T1, phosphorylated Axl (pAxl Y702) in NCI-H1299 cells (Homo sapiens, UniProt P30530); test: Intracellular Axl Phosphorylation Inhibitory Activity (pAxl, NCI-H1299 cells); assay type: cell-based; conditions: 1 h compound incubation, GAS6 stimulation 10 minutes, pAxl (Y702) level
T1 construct: endogenous in cells; host or cells: NCI-H1299
T1 sequence (P30530 26-894): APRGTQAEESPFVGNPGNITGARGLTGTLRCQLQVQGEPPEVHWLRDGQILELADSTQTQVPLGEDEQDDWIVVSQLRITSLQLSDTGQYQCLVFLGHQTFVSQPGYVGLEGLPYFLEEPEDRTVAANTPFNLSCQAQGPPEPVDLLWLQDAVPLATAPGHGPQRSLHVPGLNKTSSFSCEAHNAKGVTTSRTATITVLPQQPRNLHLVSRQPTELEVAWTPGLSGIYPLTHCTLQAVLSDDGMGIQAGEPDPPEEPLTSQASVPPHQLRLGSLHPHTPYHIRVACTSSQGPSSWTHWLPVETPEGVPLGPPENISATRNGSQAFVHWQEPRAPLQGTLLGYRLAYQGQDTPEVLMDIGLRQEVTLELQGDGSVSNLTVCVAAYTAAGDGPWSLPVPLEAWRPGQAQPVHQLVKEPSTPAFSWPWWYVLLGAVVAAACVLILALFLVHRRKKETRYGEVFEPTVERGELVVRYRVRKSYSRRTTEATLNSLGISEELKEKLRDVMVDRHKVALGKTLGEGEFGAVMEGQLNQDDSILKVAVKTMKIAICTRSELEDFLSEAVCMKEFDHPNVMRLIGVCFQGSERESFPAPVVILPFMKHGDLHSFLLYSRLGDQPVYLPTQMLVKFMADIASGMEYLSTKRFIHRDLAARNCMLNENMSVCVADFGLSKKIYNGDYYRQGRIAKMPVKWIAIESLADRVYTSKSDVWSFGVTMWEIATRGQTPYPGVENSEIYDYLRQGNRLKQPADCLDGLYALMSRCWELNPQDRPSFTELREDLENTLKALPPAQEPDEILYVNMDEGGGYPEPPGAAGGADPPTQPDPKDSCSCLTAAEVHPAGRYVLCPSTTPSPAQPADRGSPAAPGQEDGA
Method: A phosphorylated Axl (hereinafter pAxl) inhibitory test was performed using the human non-small-cell lung cancer-derived cell strain NCI-H1299.
On the following day, the medium was removed, 100 μl of fresh medium were added, and the cells were cultured at 37° C. in the presence of 5% CO2 for one day.
The test compound was dissolved in DMSO and diluted with medium to prepare a sample solution (DMSO concentration: 2%). Twenty-five microliters of medium or sample-added medium was added to each well (DMSO concentration: 0.4%), and the plate was incubated at 37° C. in the presence of 5% CO2 for one hour.
After stirring, the plate was incubated at 37° C. in the presence of 5% CO2 for 10 minutes.
The supernatant was discarded, and 0.1 ml of a 37% formalin solution diluted to 4% with phosphate buffer (PBS) (hereinafter “4% formalin solution”) was added to each well. The plate was allowed to stand at room temperature for 10 minutes.
Next, the 4% formalin solution was discarded, and 0.2 ml of a solution of Triton X-100 diluted to 0.1% with PBS (hereinafter “wash buffer”) was added. The wash buffer was discarded using a decanter, and excess moisture in the plate was removed on a paper towel.
Subsequently, […] NaN3 and H2O2 were added to the wash buffer at 0.1% (hereinafter “quenching buffer”), and 0.1 ml of the quenching buffer was added to each well. The plate was allowed to stand at room temperature for 15 minutes.
The quenching buffer was discarded, and 0.2 ml of wash buffer was added. The wash buffer was discarded using a decanter, and excess moisture in the plate was removed on a paper towel.
Skim milk (Nacalai Tesque) was added to the wash buffer at a final concentration of 5% (hereinafter “blocking buffer”), and 0.25 ml of the blocking buffer was added to each well. The plate was allowed to stand at room temperature for one hour.
After light stirring, the plate was incubated for 20 minutes. Luminescence was then measured by ARVO sx (PerkinElmer), and the pAxl (Y702) level was measured.
pAxl Inhibitory activity was determined by the following formula. Inhibition %=100−(A−B)×100/(T−B)
A: Measurement of the test compound
T: Luminescence value of the reaction solution with a compound not added

[2] = target: T2, AXL (fusion protein of amino acids 464-885 of the intracellular domain of human AXL with glutathione transferase) (Homo sapiens, UniProt P30530); test: Cell-Free Axl Kinase Inhibitory Activity
T2 sequence (P30530 464-885 isoform P30530-2): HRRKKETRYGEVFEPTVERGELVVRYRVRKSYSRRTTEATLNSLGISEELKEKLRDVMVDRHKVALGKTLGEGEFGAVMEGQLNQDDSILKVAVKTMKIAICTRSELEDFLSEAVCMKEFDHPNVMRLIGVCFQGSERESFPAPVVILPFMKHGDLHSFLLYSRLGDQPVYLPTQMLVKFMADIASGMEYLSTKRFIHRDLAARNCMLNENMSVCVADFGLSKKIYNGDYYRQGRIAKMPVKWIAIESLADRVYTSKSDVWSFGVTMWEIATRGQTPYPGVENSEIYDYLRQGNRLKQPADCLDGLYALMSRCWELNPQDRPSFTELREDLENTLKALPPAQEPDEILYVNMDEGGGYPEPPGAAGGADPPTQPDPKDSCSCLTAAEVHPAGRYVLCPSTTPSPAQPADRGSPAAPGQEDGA
Method: Next, the test compound was diluted with DMSO, and 1 μl of this diluted solution was added to each well.
Five microliters of this solution were added to each well to initiate a kinase reaction. The plate was incubated at 28° C. for 1.5 hours, and 40 μl of a termination buffer (100 mM HEPES (pH 7.4), 0.015% Brij-35, 40 mM EDTA, 0.1% Coating Reagent 3) was added to each well to terminate the reaction.
The substrate peptide and the phosphorylated peptide in the reaction solution were separated and quantified by EZ Reader II (Caliper Life Sciences).
IC50 was determined from inhibition data for 12 test compound concentrations by nonlinear regression (four-parameter logistic regression) using the following formula.

IC50 [1] [nM]	IC50 [2] [nM]	SMILES
100 to 500	1 to 10	CCN(CC)CCn1cc(C(=O)Nc2ccc(-c3cc(-c4cnn(C[C@H]5COCCO5)c4)cnc3N)cc2)c(=O)c(-c2ccc(F)cc2)c1 [Example 69, N-[4-(2-Amino-5-{1-[(2S)-1,4-dioxan-2-ylmethyl]-1H-pyrazol-4-yl}pyridin-3-yl)phenyl]-1-[2-(diethylamino)ethyl]-5-(4-fluorophenyl)-4-oxo-1,4-dihydropyridine-3-carboxamide]
50 to 100	1 to 10	CCn1cc(C(=O)Nc2ccc(-c3cc(-c4ccc(OC)c(OC)c4)cnc3N)cc2)c(=O)c(-c2ccccc2)c1 [Example 18, N-{4-[2-Amino-5-(3,4-dimethoxyphenyl)pyridin-3-yl]phenyl}-1-ethyl-4-oxo-5-phenyl-1,4-dihydropyridine-3-carboxamide]
100 to 500	10 to 20	Cc1ccc(-c2cnc(N)c(-c3ccc(NC(=O)c4cn(CC(F)(F)F)cc(-c5ccc(F)cc5)c4=O)cc3)c2)cc1 [Example 35, N-{4-[2-Amino-5-(4-methylphenyl)pyridin-3-yl]phenyl}-5-(4-fluorophenyl)-4-oxo-1-(2,2,2-trifluoroethyl)-1,4-dihydropyridine-3-carboxamide]
50 to 100	1 to 10	COc1ccc(-c2cnc(N)c(-c3ccc(NC(=O)c4cn(CC(F)(F)F)cc(-c5ccc(F)c(Br)c5)c4=O)cc3)c2)cc1OC [Example 89, N-{4-[2-Amino-5-(3,4-dimethoxyphenyl)pyridin-3-yl]phenyl}-5-(4-fluoro-3-bromophenyl)-4-oxo-1-(2,2,2-trifluoroethyl)-1,4-dihydropyridine-3-carboxamide]
50 to 100	1 to 10	COc1ccc(-c2cnc(N)c(-c3ccc(NC(=O)c4cn(CCO)cc(-c5ccc(F)cc5)c4=O)cc3)c2)cc1OC [Example 7, N-{4-[2-Amino-5-(3,4-dimethoxyphenyl)pyridin-3-yl]phenyl}-5-(4-fluorophenyl)-1-(2-hydroxyethyl)-4-oxo-1,4-dihydropyridine-3-carboxamide]
50 to 100	1 to 10	CN1CC=C(c2cnc(N)c(-c3ccc(NC(=O)c4cn(CC(F)(F)F)cc(-c5ccc(F)cc5)c4=O)cc3)c2)CC1 [Example 79, N-[4-(6-Amino-1′-methyl-1′,2′,3′,6′-tetrahydro-3,4′-bipyridin-5-yl)phenyl]-5-(4-fluorophenyl)-4-oxo-1-(2,2,2-trifluoroethyl)-1,4-dihydropyridine-3-carboxamide]
50 to 100	1 to 10	COc1ccc(-c2cnc(N)c(-c3ccc(NC(=O)c4cn(CC(F)(F)F)cc(-c5cccc(F)c5)c4=O)cc3)c2)cc1OC [Example 22, N-{4-[2-Amino-5-(3,4-dimethoxyphenyl)pyridin-3-yl]phenyl}-5-(3-fluorophenyl)-4-oxo-1-(2,2,2-trifluoroethyl)-1,4-dihydropyridine-3-carboxamide]
50 to 100	1 to 10	COC1CN(C(=O)c2cn(Cc3ccc(F)cc3)cc(C(=O)Nc3ccc(-c4cc(-c5cnn(C[C@H]6COCCO6)c5)cnc4N)cc3)c2=O)C1 [Example 72, N-[4-(2-Amino-5-{1-[(2S)-1,4-dioxan-2-ylmethyl]-1H-pyrazol-4-yl}pyridin-3-yl)phenyl]-1-(4-fluorobenzyl)-5-[(3-methoxyazetidin-1-yl)carbonyl]-4-oxo-1,4-dihydropyridine-3-carboxamide]
100 to 500	1 to 10	COc1ccc(-c2cnc(N)c(-c3ccc(NC(=O)c4cn(CCOC5CCCCO5)cc(-c5ccc(F)cc5)c4=O)cc3)c2)cc1OC (racemic) [Example 6, N-{4-[2-Amino-5-(3,4-dimethoxyphenyl)pyridin-3-yl]phenyl}-5-(4-fluorophenyl)-4-oxo-1-[2-(tetrahydro-2H-pyran-2-yloxy)ethyl]-1,4-dihydropyridine-3-carboxamide]
50 to 100	1 to 10	COc1ccc(-c2cnc(N)c(-c3ccc(NC(=O)c4cn(C[C@H]5COCCO5)cc(-c5ccc(F)cc5)c4=O)cc3)c2)cc1OC [Example 14, N-{4-[2-Amino-5-(3,4-dimethoxyphenyl)pyridin-3-yl]phenyl}-1-[(2S)-1,4-dioxan-2-ylmethyl]-5-(4-fluorophenyl)-4-oxo-1,4-dihydropyridine-3-carboxamide]
50 to 100	1 to 10	COc1ccc(-c2cnc(N)c(-c3ccc(NC(=O)c4cn(CC(F)(F)F)cc(-c5ccc(F)cc5)c4=O)cc3C)c2)cc1OC [Example 30, N-{4-[2-Amino-5-(3,4-dimethoxyphenyl)pyridin-3-yl]-3-methylphenyl}-5-(4-fluorophenyl)-4-oxo-1-(2,2,2-trifluoroethyl)-1,4-dihydropyridine-3-carboxamide]
100 to 500	10 to 20	COc1ccnc(N)c1-c1ccc(NC(=O)c2cn(Cc3ccc(F)cc3)cc(C(=O)N3CCCC3)c2=O)cc1 [Example 84, N-[4-(2-Amino-4-methoxypyridin-3-yl)phenyl]-1-(4-fluorobenzyl)-4-oxo-5-(pyrrolidin-1-ylcarbonyl)-1,4-dihydropyridine-3-carboxamide]
50 to 100	1 to 10	COc1cccc(-c2cnc(N)c(-c3ccc(NC(=O)c4cn(CC(F)(F)F)cc(-c5ccc(F)cc5)c4=O)cc3)c2)c1 [Example 33, N-{4-[2-Amino-5-(3-methoxyphenyl)pyridin-3-yl]phenyl}-5-(4-fluorophenyl)-4-oxo-1-(2,2,2-trifluoroethyl)-1,4-dihydropyridine-3-carboxamide]
100 to 500	10 to 20	CC(C)(O)Cn1cc(C(=O)Nc2ccc(-c3cc(-c4cnn(C[C@H]5COCCO5)c4)cnc3N)cc2)c(=O)c(-c2ccc(F)cc2)c1 [Example 68, N-[4-(2-Amino-5-{1-[(2S)-1,4-dioxan-2-ylmethyl]-1H-pyrazol-4-yl}pyridin-3-yl)phenyl]-5-(4-fluorophenyl)-1-(2-hydroxy-2-methylpropyl)-4-oxo-1,4-dihydropyridine-3-carboxamide]
100 to 500	10 to 20	Nc1ncc(-c2cccc(Cl)c2)cc1-c1ccc(NC(=O)c2cn(CC(F)(F)F)cc(-c3ccc(F)cc3)c2=O)cc1 [Example 36, N-{4-[2-Amino-5-(3-chlorophenyl)pyridin-3-yl]phenyl}-5-(4-fluorophenyl)-4-oxo-1-(2,2,2-trifluoroethyl)-1,4-dihydropyridine-3-carboxamide]

SMILES	IC50 [1] [nM]	IC50 [2] [nM]
CC(=O)N1C2C=C(c3cnc(N)c(-c4ccc(NC(=O)c5cn(CCF)cc(-c6ccc(F)cc6)c5=O)cc4)c3)CC1CC2 (centres unmarked) [Example 81, N-{4-[5-(8-Acetyl-8-azabicyclo[3.2.1]oct-2-en-3-yl)-2-aminopyridin-3-yl]phenyl}-1-(2-fluoroethyl)-5-(4-fluorophenyl)-4-oxo-1,4-dihydropyridine-3-carboxamide]	100 to 500	23
